Tested on: Human T cell lymphoma (MOLT-4) cells
Assay: In vitro drug pretreatment of encapsulated cells, then growth in the peritoneal cavity of mice
Assay type: in vivo
Conditions: for No. of tumor cells per capsule: then 7 days i.p. in C57BL/6 mice
Method: The encapsulated tumors are preferably incubated at 37° C in medium for 1 to 2 hours. A 25 percent (v/v) suspension can then be prepared (preferably without bovine serum). The suspension can be inoculated in the peritoneal cavity of the host animal (i.e., with a 16 gauge needle).
In the experiments that follow, the drugs and other agents tested were administered to the host animal by injection at the various times called for in the protocol being tested. At various periods after treatment, the mice were killed by cervical dislocation. The peritoneal cavity of each mouse was washed with PBS or medium and floating microcapsules were aspirated using a large bore plastic Pasteur pipette. Microcapsules were transferred to 15 ml tubes and washed 3 to 4 times with PBS to remove host peritoneal cells. The washed microcapsules were aspirated into 1 ml serological pipettes, allowed to sediment, and the volume of packed microcapsules was determined. Microcapsules were then transferred to a glas dounce homogenizer (7 ml volume) and disrupted with 3 strokes of an A-tolerance plumger. Cells suspensions were filtered through nylon mesh to remove the disrupted membranes. The suspensions containing tumor cells were centrifuged and the pellet was resuspended in 0.25 to 0.5 ml of complete medium. After mixing equal volumes of cell suspension and trypan blue, viable cell counts were determined using a hemocytometer.
The number of tumor cells per 1 ml of packed microcapsules was determined as follows: a = ? where b = total number of tumor cells in the suspension, and c = total volume of microcapsules used for the preparation of this suspension.
By comparing the number of tumor cells in 1 ml of microcapsules derived from non-treated and drug-treated mice, the percent inhibition of tumor cell growth was calculated: [formula] where ac = number of tumor cells from the non-treated control microcapsules, and ae = number of tumor cells from the drug treated microcapsules.
Human T cell lymphoma (MOLT-4) cells were encapsulated according to the procedures described above and incubated in vitro in RPMI I640 medium supplemented with 10 percent fetal calf serum, glutamine and antibiotics for one hour of 37°C. During incubation they were exposed to various concentrations of 1,3-B (2-chloroethyl)-1-nitrosourea (BCNU), 5-fluorouracil (5-FU) and adriamycin. The microcapsules were then washed and implanted into the peritoneal cavity (i.p.) of C57BL/6 mice (Animal Production Area NCI-Frederick Cancer Research Facility) using #18-14 needles. After seven days the mice were sacrificed and their peritoneal cavities were washed with PBS and aspirated to collect the microcapsules in a Pasteur pipette. The microcapsules were washed several times from the host peritoneal cells. The microcapsules from the individual mice were counted by transferring them into wells of a 96 well microplate. Using an inverted microscope, the numbers of microcapsules in each well were counted. Each well was washed out and microcapsules were transferred into the glass homogenizer.
Microcapsules were then disrupted, and the suspension was filtered, centrifugated and reconstituted with PBS. The concentration and total number of cells were counted using a hemocytometer.

## COc1cccc2c1C(=O)c1c(O)c3c(c(O)c1C2=O)C[C@@](O)(C(=O)CO)C[C@@H]3O[C@H]1C[C@H](N)[C@H](O)[C@H](C)O1 [Adriamycin]
2.5 µg/ml in vitro for one hour
  No. of tumor cells per capsule: 2 x 10^3
10 µg/ml in vitro for one hour
  No. of tumor cells per capsule: 10
Mus musculus, MOLT-4, ip
  inhibition at 2.5 µg/mL: 60%
  inhibition at 10 µg/mL: 100%

Source: patent publication EP0218400A1, “Assay methods for chemotherapeutic agents” (DAMON BIOTECH, INC., priority 1985, dated 1987)
